Columns and labels:
[1] = target: Recombinant human glycogen synthase kinase 3 beta (Homo sapiens, UniProt P49841); test: GSK-3 beta inhibition assay; format: biochemical; conditions: 0.5 h, percentage of enzyme activity; for remaining activity at 25 µM: compound at 25 μM; for remaining activity at 50 µM: compound at 50 μM
Protocol: GSK-3 beta Inhibition Assay
The GSK-3 beta activity of the compounds of formula (I) according to the present invention was determined by incubation of a mixture of recombinant human GSK-3 enzyme, a phosphate source and GSK-3 substrate in the presence and in the absence of the corresponding test compound, and by measuring the GSK-3 activity of this mixture. The compounds where tested at final concentrations of 25 and 50 μM.
Recombinant human glycogen synthase kinase 3 beta was assayed in MOPS 11 mM, pH 7.4, EDTA 0.2 mM, EGTA 1.25 mM, MgCl2 26.25 mM and sodium orthovanadate 0.25 mM in the presence of 62.5 μM of Phospho-Glycogen Synthase Peptide-2 (GS-2), 0.5 μCi gamma-^33P-ATP and unlabelled ATP at a final concentration of 12.5 μM. The final assay volume was 20 μl. After incubation for 30 minutes at 30° C., 15 μl aliquots were spotted onto P81 phosphocellulose papers. Filters were washed four times for at least 10 minutes each and counted with 1.5 ml of scintillation cocktail in a scintillation counter.
(§1) The compounds of formula (I) of the present invention where submitted to the above indicated assays, in order to determine both their GSK-3 inhibition activity and BACE activity inhibition. The results are indicated in Table I and Table II, in percentage of the respective enzyme activity.

[2] = target: T1, rhBACE-1 β-Secretase recombinant human (Homo sapiens, UniProt P56817); test: BACE assay (FRET); format: biochemical; conditions: percentage of enzyme activity
T1 construct: purchased R&D Systems 931-AS
Excerpt: The aim of this assay is to determine if a compound, either synthetic or of marine origin, is a BACE-1 inhibitor, to avoid the formation of Aβ. This assay is based on FRET technology (Fluorescence Resonance Energy Transfer). FRET is used to measure cleavage of a peptide substrate, among other uses. […] When a substrate peptide cleavage occurs, the energy balance is broken and all the donor fluorescence can be observed. The increase in fluorescence is linearly related to the rate of proteolysis (Gordon, G W et al., 1998). In this assay the reaction occurs between an enzyme, purified BACE-1, and a fluorogenic peptidic substrate who present the “Swedish mutation”. The peptide cleavage by BACE-1 produces fluorescence energy and enzymatic activity can be quantified.
The reagents which are used in this assay are the following: • rhBACE-1 β-Secretase recombinant human (R&D Systems. Ref. 931-AS). • Fluorogenic Peptide Substrate IV (R&D Systems. Ref. ES004). • Beta-SECRETASE INHIBITOR H-4848. (BACHEM. Ref. H-4848.0001). • Sodium acetate.
The assay is carried out in a 96 wells microplate. The final concentration of substrate is 3.5 μM per well, and the enzyme concentration is 0.5 μg/ml. The final volume of the assay is 100 μl per well and all reagents are diluted in Reaction Buffer. The compounds are tested at a concentration of 10^−5 and 10^−6 M. The control in the assay is the commercial inhibitor β-Secretase inhibitor H-4848 from BACHEM, which is tested at 300 nM. All the samples and controls are studied by duplicate.
The plate is mixed gently and changes in the fluorescence are measured using a fluorimeter plate reader, with 320 nm excitation filter and 405 nm emission filter. The temperature should be preferably maintained between 25 and 30° C. Measurements are carried out every ten minutes during an hour. The first measure is subtracted from the last to calculate the fluorescence increase, evaluating the enzymatic activity. The 100% activity is calculated as the mean of the results of wells without sample or inhibitor.
In the cases where abnormal effects in fluorescence were detected, BACE inhibition activity was assayed using BACE-1 (beta-Secretase) FRET ASSAY KIT (Invitrogen, Ref. P2985). Fluorescence was measured with a fluorimeter plate reader, with 544 nm excitation filter and 580 nm emission filter.
as §1

Chain of Recombinant human glycogen synthase kinase 3 beta (P49841 whole entry): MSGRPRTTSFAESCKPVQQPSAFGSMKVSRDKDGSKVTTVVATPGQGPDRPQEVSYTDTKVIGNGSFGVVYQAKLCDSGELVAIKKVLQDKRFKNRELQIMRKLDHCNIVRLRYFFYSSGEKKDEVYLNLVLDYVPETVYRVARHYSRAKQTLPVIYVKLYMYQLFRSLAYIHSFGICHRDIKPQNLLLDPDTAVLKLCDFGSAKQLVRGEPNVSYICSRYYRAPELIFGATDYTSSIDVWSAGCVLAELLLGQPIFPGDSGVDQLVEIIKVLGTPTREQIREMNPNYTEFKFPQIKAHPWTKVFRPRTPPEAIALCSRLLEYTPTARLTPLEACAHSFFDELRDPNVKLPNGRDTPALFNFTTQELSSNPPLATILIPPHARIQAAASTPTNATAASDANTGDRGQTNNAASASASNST
T1 sequence (P56817 46-457 limits assumed): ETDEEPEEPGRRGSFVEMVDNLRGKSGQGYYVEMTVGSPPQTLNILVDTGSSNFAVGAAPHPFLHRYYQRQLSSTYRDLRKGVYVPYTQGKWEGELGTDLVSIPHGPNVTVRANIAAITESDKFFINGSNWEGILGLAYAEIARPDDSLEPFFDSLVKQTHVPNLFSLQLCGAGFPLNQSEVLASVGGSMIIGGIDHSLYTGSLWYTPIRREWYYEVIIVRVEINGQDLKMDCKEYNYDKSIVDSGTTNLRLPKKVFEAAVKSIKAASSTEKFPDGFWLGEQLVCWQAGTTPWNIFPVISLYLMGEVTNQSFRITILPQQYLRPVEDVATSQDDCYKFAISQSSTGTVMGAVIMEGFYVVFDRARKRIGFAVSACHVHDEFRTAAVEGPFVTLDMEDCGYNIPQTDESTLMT

SMILES	remaining activity at 25 µM [1] [%]	remaining activity at 50 µM [1] [%]	% of BACE activity ([2]; compound at 1 μM) [%]	% of BACE activity ([2]; compound at 10 μM) [%]
COC(=O)c1ccc(OC)c(N(CC=C(C)CCC=C(C)COC2CCCCO2)CC=C(C)CCC=C(C)COC2CCCCO2)c1 (centres unmarked) [Compound 37, 3-{Bis-[3,7-dimethyl-8-(tetrahydro-pyran-2-yloxy)-octa-2,6-dienyl]-amino}-4-methoxy-benzoic acid methyl ester]	24.6	1.71	50 ± 4	6.5 ± 1
COc1ccc(C(=O)N2CCN(CC=Cc3ccccc3)CC2)cc1N(CC=C(C)CCC=C(C)C)CC=C(C)CCC=C(C)C [Compound 38, {3-[Bis-(3,7-dimethyl-octa-2,6-dienyl)-amino]-4-methoxy-phenyl}-[4-(3-phenyl-allyl)-piperazin-1-yl]-methanone]	23.6	2.51	81.5 ± 9	35 ± 10
COc1ccc(C(=O)N2CCN(CCO)CC2)cc1N(CC=C(C)CCC=C(C)C)CC=C(C)CCC=C(C)C [Compound 39, {3-[Bis-(3,7-dimethyl-octa-2,6-dienyl)-amino]-4-methoxy-phenyl}-[4-(2-hydroxy-ethyl)-piperazin-1-yl]-methanone]	55.1	13.2	100	100
CCC(C)Oc1ccc(C(=O)OC)cc1NCC=C(C)CCC=C(C)CCC=C(C)C (centres unmarked) [Compound 40, 4-sec-Butoxy-3-(3,7,11-trimethyl-dodeca-2,6,10-trienylamino)-benzoic acid methyl ester]	111	99.4	100	100
COc1ccc(C(=O)NC(=N)n2cccn2)cc1N(C/C=C(\C)CCC=C(C)C)C/C=C(\C)CCC=C(C)C [Compound 41]	88.9	98.4	73 ± 2	75 ± 9
CCCOc1ccc(C(=O)OC)cc1NC/C=C(\C)CC/C=C(\C)CCC=C(C)C [Compound 43]	103	98.2	88.3 ± 3.8	27.5 ± 9.2
COc1ccc(C(=O)NCCc2c[nH]cn2)cc1N(C/C=C(\C)CCC=C(C)C)C/C=C(\C)CCC=C(C)C [Compound 46]	27.9	19.8	122.5 ± 23.3	115.5 ± 29
CC(C)=CCC/C(C)=C/CC/C(C)=C/CNc1cc(C(=O)O)ccc1O [Compound 48]	105	97.9	100	36.5 ± 0.7
